This data set deals with Rattus norvegicus. Particulars: for LOEL / NOEL: oral, gavage; for NEL / LOAEL / NOAEL / LEL: inhalation.
Setting [1] is: chronic, duration: 92 days, F, Wistar, kidney: relative kidney weight.
Where [2] appears, read: chronic, duration: 92 days, M, Wistar, liver: relative liver weight.
Setting [3] is: short-term, duration: 28 days, F, Wistar, kidney: absolute kidney weight + kidney: relative kidney weight + liver: absolute liver weight + liver: relative liver weight.
[4] abbreviates: short-term, duration: 28 days, M, Wistar, adrenal gland: absolute adrenal gland weight + adrenal gland: relative adrenal gland weight + testis: relative testis weight + thymus: ….
The mark [5] stands for this setting: short-term, duration: 28 days, M, Wistar, liver: relative liver weight + spleen: absolute spleen weight.
The mark [6] stands for this setting: reproduction developmental, duration: 9 days, F, Crl:CD(SD) BR, generation: P0, P0: Whole Body: Maternal Body Weight Change.
Where [7] appears, read: reproduction developmental, duration: 9 days, F, Sprague-Dawley, generation: P0, P0: General Toxicity: Whole Body: Clinical Observations + P0: General Toxicity: Whole Body: Maternal Body Weight Change.
The mark [8] stands for this setting: short-term, duration: 4 weeks, F, Wistar, Multi-organ: Inorganic Phosphorous (PHOS), Blood.
Where [9] appears, read: short-term, duration: 4 weeks, M, Wistar, Blood: Partial Thromboplastin Time (PTT) + Liver: Cytoplasmic Vacuolation, Fatty Hepatocellular.
The mark [10] stands for this setting: subchronic, duration: 90 days, F, RccHan (Wist), Blood: Large Unstained Cells + Blood: Lymphocyte + Blood: Monocytes.
Where [11] appears, read: subchronic, duration: 90 days, F, Wistar, General Toxicity: Whole Body: Body Weight Change + Immune: Blood: Large Unstained Cells + Immune: Blood: Lymphocyte + Immune: Blood: ….
The mark [12] stands for this setting: subchronic, duration: 90 days, F, Wistar, Immune: Blood: Large Unstained Cells + Immune: Blood: Lymphocyte + Immune: Blood: Monocytes + Immune: Blood: White Blood Cell (WBC).
Where [13] appears, read: subchronic, duration: 90 days, M/F, Wistar, Immune: Blood: Basophils + Immune: Blood: Eosinophils + Immune: Blood: Neutrophils.
[14] abbreviates: subchronic, duration: 90 days, M, RccHan (Wist), Blood: Lymphocyte + Blood: Monocytes + Blood: White Blood Cell (WBC).
Setting [15] is: subchronic, duration: 90 days, M, Wistar, General Toxicity: Whole Body: Body Weight Change + Immune: Blood: Large Unstained Cells + Immune: Blood: Lymphocyte + Immune: Blood: ….
Setting [16] is: subchronic, duration: 90 days, M, Wistar, Immune: Blood: Large Unstained Cells + Immune: Blood: Lymphocyte + Immune: Blood: Monocytes + Immune: Blood: White Blood Cell (WBC).

“And” between values parts separate entries of the source, which are not always exact repeats. Identical values can stand only once.

One may read the LOAEL as the lowest tested level that showed an adverse finding. By NOAEL is commonly meant the highest tested level that showed no adverse finding.

As to `Cc1ccc(S(=O)(=O)NC(=O)Nc2cccc(OS(=O)(=O)c3ccc(C)cc3)c2)cc1` [Pergafast 201], the LOEL is 150 mg/kg-day under setting [1]; 12.5 mg/kg-day (chronic, duration: 92 days, F, Wistar, liver: absolute liver weight + liver: relative liver weight); 150 mg/kg-day under setting [2]; 150 mg/kg-day under setting [3]; 750 mg/kg-day under setting [4]; 30 mg/kg-day (short-term, duration: 28 days, M, Wistar, brain: relative brain weight + liver: absolute liver weight). Also, under setting [5], the LOEL was 150 mg/kg-day. The NOEL was found to be 50 mg/kg-day under setting [1]; 50 mg/kg-day under setting [2]; 30 mg/kg-day under setting [3]; 150 mg/kg-day under setting [4]; 30 mg/kg-day under setting [5].

As to `C=CC(F)(F)C(F)(F)C(F)(F)C(F)(F)F` [3,3,4,4,5,5,6,6,6-Nonafluorohexene], the NEL is, setting by setting: (developmental, duration: 9 days, M/F, Crl:CD(SD) BR, generation: F1, F1: Uterus: Fetuses, Dead + F1: Uterus: Fetuses, Live + F1: Whole Body: Body Weight, Fetal + F1: Whole Body: External Abnormalities + F1: …) 704000 mg/m3 and 705000 mg/m3; (reproduction developmental, duration: 9 days, F, Crl:CD(SD) BR, generation: P0, P0: Liver: Liver Weight, Unspecified + P0: Ovary: Corpora Lutea + P0: Uterus: Implantation + P0: Uterus: Resorptions, Early + P0: Uterus: …) 704000 mg/m3 and 705000 mg/m3; under setting [6], 10100 mg/m3; (short-term, duration: 4 weeks, F, Wistar, Adrenal: Adrenal Gland Weight, Absolute + Adrenal: Adrenal Gland Weight, Relative + Blood: Partial Thromboplastin Time (PTT) + Blood: …) 101000 mg/m3; under setting [8], 20100 mg/m3; (short-term, duration: 4 weeks, M, Wistar, Adrenal: Adrenal Gland Weight, Absolute + Adrenal: Adrenal Gland Weight, Relative + Blood: Prothrombin Time (PT) + Kidney: Kidney Weight, …) 101000 mg/m3. Further, the NEL was found to be 20100 mg/m3 under setting [9]; 10100 mg/m3 under setting [10]; 103000 mg/m3 (subchronic, duration: 90 days, F, RccHan (Wist), Blood: White Blood Cell (WBC) + Whole Body: Body Weight Change); 103000 mg/m3 (subchronic, duration: 90 days, M/F, RccHan (Wist), Blood: Activated Partial Thromboplastin Time (APTT) + Blood: Basophils + Blood: Calcium (CA), Blood + Blood: Chloride (CL), Blood + Blood: …); 103000 mg/m3 (subchronic, duration: 90 days, M, RccHan (Wist), Blood: Large Unstained Cells + Whole Body: Body Weight Change); 30600 mg/m3 under setting [14]. In addition, the LOAEL runs as follows: (developmental, duration: 9 days, Sprague-Dawley, generation: F1, F1: Developmental: Skeleton: Skeletal Malformation + F1: Developmental: Skeleton: Skeletal Ossification Variations + F1: Developmental: Soft…) 705000 mg/m3 and 704000 mg/m3; (reproduction developmental, duration: 9 days, F, Sprague-Dawley, generation: P0, P0: Developmental: Uterus: Implantation + P0: Developmental: Uterus: Resorptions, Early + P0: Developmental: Uterus: Resorptions, Late + P0…) 705000 mg/m3 and 704000 mg/m3; under setting [7], 705000 mg/m3 and 704000 mg/m3; under setting [11], 30600 mg/m3; under setting [12], 30600 mg/m3; (subchronic, duration: 90 days, M/F, Wistar, Endocrine: Blood: Glucose (GLU) + Endocrine: Blood: Triglycerides (TRIG) + Endocrine: Serum: Cholesterol (CHOL), Total + General Toxicity: …) 30600 mg/m3. The LOAEL under setting [13] stood at 30600 mg/m3, the LOAEL under setting [15] was 30600 mg/m3 and the LOAEL under setting [16] turned out to be 30600 mg/m3. The NOAEL runs as follows: (developmental, duration: 9 days, Sprague-Dawley, generation: F1, F1: Developmental: Whole Body: External Abnormalities) 70000 mg/m3; under setting [7], 10100 mg/m3; (subchronic, duration: 90 days, F, Wistar, General Toxicity: Whole Body: Body Weight Change) 103000 mg/m3; under setting [11], 10100 mg/m3; under setting [12], 10100 mg/m3; under setting [13], 10100 mg/m3. Further, the NOAEL was found to be 103000 mg/m3 (subchronic, duration: 90 days, M, Wistar, General Toxicity: Whole Body: Body Weight Change); 10100 mg/m3 under setting [15]; 10100 mg/m3 under setting [16]. Also, the LEL was 704000 mg/m3 and 705000 mg/m3 under setting [6]; 101000 mg/m3 under setting [8]; 101000 mg/m3 under setting [9]; 30600 mg/m3 under setting [10]; 103000 mg/m3 under setting [14].

Source of the values: EPA's ToxValDB 9.5.
